Test results as given in patent US20250186437A1, “CARBOLINE COMPOUNDS AND USE THEREOF” (PTC Therapeutics, Inc., priority 2021, published 2025).

What follows are molecules tested on MOLM-13 cells (assay: MOLM-13 Cell Proliferation Assay (indicator of DHODH inhibition)). Settings: Homo sapiens, 72 Hours of culture, CellTiter-Glo, no uridine.
Format: cell-based
In short: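 Proliferation readout via CellTiter-Glo luminescence after 72 h compound treatment (37 °C, 5% CO2, 0.5% DMSO) of MOLM-13 cells seeded at 10^4 per well in RPMI 1640/10% FBS, used as a DHODH-inhibition indicator since these cells rely on de novo pyrimidine synthesis.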

Row | Structure (SMILES) | IC50 [nM]
1 | Cc1nc(N2CCc3c([nH]c4cc(F)c(Cl)cc34)C2c2ccc(/C=C/CCO)cc2)ncc1F (stereo not shown) [Compound 239, (3E)-4-{4-[6-chloro-7-fluoro-2-(5-fluoro-4-methylpyrimidin-2-yl)-2,3,4,9-tetrahydro-1H-pyrido[3,4-b]indol-1-yl]phenyl}but-3-en-1-ol] | 2.5
2 | Fc1c(Cl)ccc2[nH]c3c(c12)CCN(c1nccc(C(F)(F)F)n1)[C@H]3c1ccc(Cl)cc1 [Compound 182, (1S)-6-chloro-1-(4-chlorophenyl)-5-fluoro-2-[4-(trifluoromethyl)pyrimidin-2-yl]-2,3,4,9-tetrahydro-1H-pyrido[3,4-b]indole] | 1.3
3 | Cc1nc(N2CCc3c([nH]c4ccc(Cl)c(F)c34)C2c2cccc(F)c2F)ncc1F (stereo not shown) [Compound 113, 6-chloro-1-(2,3-difluorophenyl)-5-fluoro-2-(5-fluoro-4-methylpyrimidin-2-yl)-2,3,4,9-tetrahydro-1H-pyrido[3,4-b]indole] | 2.6
4 | COc1ccc(C2c3[nH]c4cc(F)c(Cl)cc4c3CCN2c2ncc(F)cn2)cn1 (stereo not shown) [Compound 8, 6-chloro-7-fluoro-2-(5-fluoropyrimidin-2-yl)-1-(6-methoxypyridin-3-yl)-2,3,4,9-tetrahydro-1H-pyrido[3,4-b]indole] | 34.8
5 | Fc1cc2[nH]c3c(c2cc1Cl)CCN(c1nccc(C(F)(F)F)n1)C3c1ccc(C(F)(F)F)cc1 (stereo not shown) [Compound 75, 6-chloro-7-fluoro-1-[4-(trifluoromethyl)phenyl]-2-[4-(trifluoromethyl)pyrimidin-2-yl]-2,3,4,9-tetrahydro-1H-pyrido[3,4-b]indole] | 12.5
6 | Cc1ccnc(N2CCc3c([nH]c4ccc(Cl)cc34)[C@@H]2c2ccc(C)c(F)c2F)n1 [Compound 234, (1S)-6-chloro-1-(2,3-difluoro-4-methylphenyl)-2-(4-methylpyrimidin-2-yl)-2,3,4,9-tetrahydro-1H-pyrido[3,4-b]indole] | 0.8
7 | Cc1ccc(C2c3[nH]c4ccc(Cl)cc4c3CCN2c2nccc(C(F)(F)F)n2)c(F)c1F (stereo not shown) [Compound 128, 6-chloro-1-(2,3-difluoro-4-methylphenyl)-2-[4-(trifluoromethyl)pyrimidin-2-yl]-2,3,4,9-tetrahydro-1H-pyrido[3,4-b]indole] | 0.9
8 | NS(=O)(=O)c1ccc(C2c3[nH]c4ccc(Cl)c(F)c4c3CCN2c2nccc(C(F)(F)F)n2)cc1 (stereo not shown) [Compound 150, 4-{6-chloro-5-fluoro-2-[4-(trifluoromethyl)pyrimidin-2-yl]-2,3,4,9-tetrahydro-1H-pyrido[3,4-b]indol-1-yl}benzene-1-sulfonamide] | 8.9
9 | N#Cc1ccnc(N2CCc3c([nH]c4cc(F)c(Cl)cc34)C2c2ccc(Cl)cc2)n1 (stereo not shown) [Compound 40, 2-[6-chloro-1-(4-chlorophenyl)-7-fluoro-1,3,4,9-tetrahydro-2H-pyrido[3,4-b]indol-2-yl]pyrimidine-4-carbonitrile] | 22.4
10 | Cc1ccc([C@@H]2c3[nH]c4ccc(Cl)cc4c3CCN2c2nccc(C#N)n2)c(F)c1F [Compound 176, 2-[(1R)-6-chloro-1-(2,3-difluoro-4-methylphenyl)-1,3,4,9-tetrahydro-2H-pyrido[3,4-b]indol-2-yl]pyrimidine-4-carbonitrile] | 58.1
11 | COC(=O)CCc1ccc(C2c3[nH]c4cc(F)c(Cl)cc4c3CCN2c2ncc(F)cn2)cc1 (stereo not shown) [Compound 165, methyl 3-{4-[6-chloro-7-fluoro-2-(5-fluoropyrimidin-2-yl)-2,3,4,9-tetrahydro-1H-pyrido[3,4-b]indol-1-yl]phenyl}propanoate] | 16.7
12 | Fc1c(Cl)ccc2[nH]c3c(c12)CCN(c1nccc(C(F)(F)F)n1)C3c1ccc(C(F)(F)F)cc1 (stereo not shown) [Compound 74, 6-chloro-5-fluoro-1-[4-(trifluoromethyl)phenyl]-2-[4-(trifluoromethyl)pyrimidin-2-yl]-2,3,4,9-tetrahydro-1H-pyrido[3,4-b]indole] | 5.7
13 | Cc1ccc(C2c3[nH]c4cc(F)c(Cl)cc4c3CCN2c2nc(C(F)(F)F)cc(C(F)(F)F)n2)cc1 (stereo not shown) [Compound 154, 2-[4,6-bis(trifluoromethyl)pyrimidin-2-yl]-6-chloro-7-fluoro-1-(4-methylphenyl)-2,3,4,9-tetrahydro-1H-pyrido[3,4-b]indole] | 0.9
14 | Oc1cccc(C2c3[nH]c4ccc(Cl)cc4c3CCN2c2nccc(C(F)(F)F)n2)c1F (stereo not shown) [Compound 256, 3-{6-chloro-2-[4-(trifluoromethyl)pyrimidin-2-yl]-2,3,4,9-tetrahydro-1H-pyrido[3,4-b]indol-1-yl}-2-fluorophenol] | 3.6

Results, then the molecule that gave them:

Row | IC50 [nM] | Structure (SMILES)
15 | 0.8 | FC(F)(F)c1cc(C(F)(F)F)nc(N2CCc3c([nH]c4ccc(-n5nccn5)cc34)C2c2cnc(N3CCOCC3)nc2)n1 (stereo not shown) [Compound 482, 2-[4,6-bis(trifluoromethyl)pyrimidin-2-yl]-1-[2-(morpholin-4-yl)pyrimidin-5-yl]-6-(2H-1,2,3-triazol-2-yl)-2,3,4,9-tetrahydro-1H-pyrido[3,4-b]indole]
16 | 1.3 | Cc1ccc(C2c3[nH]c4ccc(Cl)cc4c3CCN2c2nccc(C(F)(F)F)n2)c(O)c1 (stereo not shown) [Compound 257, 2-{6-chloro-2-[4-(trifluoromethyl)pyrimidin-2-yl]-2,3,4,9-tetrahydro-1H-pyrido[3,4-b]indol-1-yl}-5-methylphenol]
17 | 3.1 | Cc1ccc([C@H]2c3[nH]c4ccc(Cl)cc4c3CCN2c2ncc(F)c(C#N)n2)cc1 [Compound 392, 2-[(1S)-6-chloro-1-(4-methylphenyl)-1,3,4,9-tetrahydro-2H-pyrido[3,4-b]indol-2-yl]-5-fluoropyrimidine-4-carbonitrile]
18 | 1.2 | Cc1ccc([C@H]2c3[nH]c4ccc(Cl)cc4c3CCN2c2nc(C#N)cc(C(F)(F)F)n2)cc1 [Compound 425, 2-[(1S)-6-chloro-1-(4-methylphenyl)-1,3,4,9-tetrahydro-2H-pyrido[3,4-b]indol-2-yl]-6-(trifluoromethyl)pyrimidine-4-carbonitrile]
19 | 7.6 | FC(F)(F)c1ccnc(N2CCc3c([nH]c4ccc(Cl)cc34)C2c2cnc(N3CC4CC3CO4)nc2)n1 (stereo not shown) [Compound 335, 6-chloro-1-[2-(2-oxa-5-azabicyclo[2.2.1]heptan-5-yl)pyrimidin-5-yl]-2-[4-(trifluoromethyl)pyrimidin-2-yl]-2,3,4,9-tetrahydro-1H-pyrido[3,4-b]indole]
20 | 2.4 | N#Cc1nc(N2CCc3c([nH]c4ccc(Cl)cc34)[C@@H]2c2cnc(N3CCOCC3)nc2)ncc1F [Compound 396, 2-{(1S)-6-chloro-1-[2-(morpholin-4-yl)pyrimidin-5-yl]-1,3,4,9-tetrahydro-2H-pyrido[3,4-b]indol-2-yl}-5-fluoropyrimidine-4-carbonitrile]
21 | 7.4 | Cc1ccc(C2c3[nH]c4cc(F)c(Cl)cc4c3CCN2c2nc(C)c(F)c(C)n2)cc1 (stereo not shown) [Cpd 106, 6-chloro-7-fluoro-2-(5-fluoro-4,6-dimethylpyrimidin-2-yl)-1-(4-methylphenyl)-2,3,4,9-tetrahydro-1H-pyrido[3,4-b]indole]
22 | 4.1 | CCCCOC(=O)c1ccnc(N2CCc3c([nH]c4ccc(Cl)cc34)C2c2ccc(C)cc2)n1 (stereo not shown) [Compound 280, butyl 2-[6-chloro-1-(4-methylphenyl)-1,3,4,9-tetrahydro-2H-pyrido[3,4-b]indol-2-yl]pyrimidine-4-carboxylate]
